What was measured:
Type in all cases: cell-based
[1] = tested on: CYP1A1; test: CLZD_CYP1A1: Change in expression of CYP1A1 (primary human hepatocytes); settings: 24 hr
Procedure, shortened: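 Chemicals are tested in human hepatocyte primary cultures over 0.004-40 µM (5 concentrations) for 6, 24 or 48 hr, and concentration- and time-dependent transcript changes are read by quantitative nuclease protection assay.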

[2] = molecular target: T1, ESR1 (estrogen receptor 1) (Homo sapiens, UniProt P03372); test: ATG_ERa_TRANS: Factorial reporter gene assay (HepG2)
T1 construct: expressed in transfected cells; host or cells: HepG2
T1 sequence (P03372 whole entry): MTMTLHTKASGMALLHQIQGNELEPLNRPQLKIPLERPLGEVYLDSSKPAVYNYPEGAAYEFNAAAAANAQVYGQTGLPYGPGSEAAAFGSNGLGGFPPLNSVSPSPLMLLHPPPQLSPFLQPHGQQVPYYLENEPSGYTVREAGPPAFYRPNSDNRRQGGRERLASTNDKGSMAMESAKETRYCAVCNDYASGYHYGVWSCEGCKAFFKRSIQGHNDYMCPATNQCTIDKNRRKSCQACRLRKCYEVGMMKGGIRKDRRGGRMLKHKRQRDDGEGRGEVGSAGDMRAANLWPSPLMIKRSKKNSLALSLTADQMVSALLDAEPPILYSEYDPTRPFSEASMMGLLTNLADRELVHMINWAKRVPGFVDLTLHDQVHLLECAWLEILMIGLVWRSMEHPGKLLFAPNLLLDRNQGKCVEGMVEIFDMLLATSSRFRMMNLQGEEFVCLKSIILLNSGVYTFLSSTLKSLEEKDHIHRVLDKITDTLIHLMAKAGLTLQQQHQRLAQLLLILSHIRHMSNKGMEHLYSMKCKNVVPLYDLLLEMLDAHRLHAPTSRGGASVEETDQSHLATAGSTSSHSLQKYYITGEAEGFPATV
Procedure, shortened: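 Seven concentrations per chemical, three-fold dilutions down from the MTC, were tested in HepG2 hepatoma cells. Those cells carried a multiple reporter transcription unit library, read either as cis transcription-factor-site reporters or as a trans mammalian one-hybrid panel for nuclear receptors.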

[3] = molecular target: T2, PPARA (peroxisome proliferator-activated receptor alpha) (Homo sapiens, UniProt Q07869); test: ATG_PPARa_TRANS: Factorial reporter gene assay (HepG2); parameters: scale not given here; settings: scale not given, looks like -log10 of molar active concentration, 0 = no activity
T2 construct: expressed in transfected cells; host or cells: HepG2
T2 sequence (Q07869 1-468): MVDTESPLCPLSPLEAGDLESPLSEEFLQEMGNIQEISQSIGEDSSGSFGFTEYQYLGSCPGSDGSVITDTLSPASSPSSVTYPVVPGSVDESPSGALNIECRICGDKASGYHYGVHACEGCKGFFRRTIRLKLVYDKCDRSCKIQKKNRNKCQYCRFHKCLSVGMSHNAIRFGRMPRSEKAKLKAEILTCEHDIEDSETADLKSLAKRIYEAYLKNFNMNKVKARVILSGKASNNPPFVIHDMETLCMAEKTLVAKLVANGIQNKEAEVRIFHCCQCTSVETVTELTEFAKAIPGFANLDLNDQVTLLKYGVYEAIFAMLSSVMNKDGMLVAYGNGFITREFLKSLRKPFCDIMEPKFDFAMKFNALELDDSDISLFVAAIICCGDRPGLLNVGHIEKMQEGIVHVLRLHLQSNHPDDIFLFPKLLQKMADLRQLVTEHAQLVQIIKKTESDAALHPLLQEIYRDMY
Method: A multiple reporter transcription unit (MRTU) library consisting of 48 transcription factor binding sites was transfected into the HepG2 human liver hepatoma cell line. In addition to the cis-acting reporter genes (CIS), a modification of the approach was used to generate a trans-system (TRANS) with a mammalian one-hybrid assay consisting of an additional 25 MRTU library reporting the activity of nuclear receptor super-family members. […] These assays were performed by Attagene Inc. (Morrisville NC) under contract to EPA.
In addition to the cis-acting reporter genes (CIS), a modification of the approach was used to generate a trans-system (TRANS) with a mammalian one-hybrid assay consisting of an additional 25 MRTU library reporting the activity of nuclear receptor super-family members. […] Chemicals were then tested in the CIS and TRANS assays at seven concentrations starting at the MTC and followed by three-fold serial dilutions. These assays were performed by Attagene Inc. (Morrisville NC) under contract to EPA. Detailed description of the methods, data and analysis methods for this dataset will be presented in a separate publication.

[4] = molecular target: T3, RXRa (RXRA) (Homo sapiens, UniProt P19793); test: NCGC_RXRa_Agonist: GAL4 BLAM Reporter gene assay: RXRa; settings: agonist mode; scale not given, looks like -log10 of molar active concentration; 0 = no activity
T3 sequence (P19793 227-462 limits assumed): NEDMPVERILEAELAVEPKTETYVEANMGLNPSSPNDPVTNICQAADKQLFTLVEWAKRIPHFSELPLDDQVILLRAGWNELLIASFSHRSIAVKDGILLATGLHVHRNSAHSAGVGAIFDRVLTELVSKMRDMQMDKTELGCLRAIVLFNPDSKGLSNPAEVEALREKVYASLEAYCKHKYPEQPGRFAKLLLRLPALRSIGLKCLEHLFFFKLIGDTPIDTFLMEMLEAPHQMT
Method: These assays measure binding constants and enzyme inhibition values for nuclear receptors. The targets include [drawing 67] , [drawing 68] , [drawing 69] , [drawing 70] , [drawing 71] , [drawing 72] , [drawing 73] , [drawing 74] , [drawing 75] and [drawing 76] . Each of the nuclear receptor targets was measured in agonist mode. Assays were run at the NIH Chemical Genomics Center (Rockville, MD).
Cell-based HTS Assays: These assays measuring binding constants and enzyme inhibition values for nuclear receptors. The targets include AR, ER, FXR, LXR, PPARα, PPARδ, PPARγ, RXRα, RXRβ and PXR. Each of the nuclear receptor targets was measured in both agonist and antagonist mode, but the antagonist data is still undergoing analysis due to possible interference between cytotoxicity and assay activity, so antagonist mode data were not used in the present analysis. Assays were run at the NIH Chemical Genomics Center (Rockville, MD) as part of the Tox21 collaboration. […] The R^2 was required to be ≥0.5. Values where only the highest concentration exceeded 50% activity were excluded to eliminate weak or false positives. Detailed description of the methods, data and analysis methods for this dataset will be presented in a separate publication.

[5] = scale not given, looks like -log10 of molar active concentration, 0 = no activity
[6] = HepG2, scale not given, looks like -log10 of molar active concentration, 0 = no activity

COC(=O)c1ccccc1CS(=O)(=O)NC(=O)Nc1nc(OC)cc(OC)n1 [r33]
CLZD_CYP1A1_24 [1, 5]: 0 | ATG_ERa_TRANS [2, 6]: 0 | ATG_PPARa_TRANS [3]: 0 | NCGC_RXRa_Agonist [4]: 0

CC(C)N1C(=O)c2ccccc2NS1(=O)=O [r37]
CLZD_CYP1A1_24 [1, 5]: 0 | ATG_ERa_TRANS [2, 6]: 0 | ATG_PPARa_TRANS [3]: 0 | NCGC_RXRa_Agonist [4]: 0

COc1ccc(-c2ccccc2)cc1NNC(=O)OC(C)C [r38]
CLZD_CYP1A1_24 [1, 5]: 4.891 | ATG_ERa_TRANS [2, 6]: 0 | ATG_PPARa_TRANS [3]: 0 | NCGC_RXRa_Agonist [4]: 0

Cc1c(COC(=O)C2C(/C=C(\Cl)C(F)(F)F)C2(C)C)cccc1-c1ccccc1 (stereo not shown) [r39]
CLZD_CYP1A1_24 [1, 5]: 4.56 | ATG_ERa_TRANS [2, 6]: 4.432 | ATG_PPARa_TRANS [3]: 0 | NCGC_RXRa_Agonist [4]: 0

CC(C)(c1ccc(O)cc1)c1ccc(O)cc1 [r40]
CLZD_CYP1A1_24 [1, 5]: 0 | ATG_ERa_TRANS [2, 6]: 5.959 | ATG_PPARa_TRANS [3]: 0 | NCGC_RXRa_Agonist [4]: 0

OB(O)O [r41]
ATG_ERa_TRANS [2, 6]: 0 | ATG_PPARa_TRANS [3]: 0 | NCGC_RXRa_Agonist [4]: 0

O=C(Nc1ccccc1-c1ccc(Cl)cc1)c1cccnc1Cl [r42]
CLZD_CYP1A1_24 [1, 5]: 4.852 | ATG_ERa_TRANS [2, 6]: 4.569 | ATG_PPARa_TRANS [3]: 0 | NCGC_RXRa_Agonist [4]: 0

CCC(C)n1c(=O)[nH]c(C)c(Br)c1=O (stereo not shown) [r43]
CLZD_CYP1A1_24 [1, 5]: 4.897 | ATG_ERa_TRANS [2, 6]: 0 | ATG_PPARa_TRANS [3]: 0 | NCGC_RXRa_Agonist [4]: 0

N#Cc1cc(Br)c(O)c(Br)c1 [r44]
CLZD_CYP1A1_24 [1, 5]: 0 | ATG_ERa_TRANS [2, 6]: 4.432 | ATG_PPARa_TRANS [3]: 4.678 | NCGC_RXRa_Agonist [4]: 4.817

CC(C)N1C(=O)N(c2ccccc2)CS/C1=N\C(C)(C)C [r45]
CLZD_CYP1A1_24 [1, 5]: 0 | ATG_ERa_TRANS [2, 6]: 0 | ATG_PPARa_TRANS [3]: 0 | NCGC_RXRa_Agonist [4]: 0

CCCCOCN(C(=O)CCl)c1c(CC)cccc1CC [r46]
CLZD_CYP1A1_24 [1, 5]: 5.141 | ATG_ERa_TRANS [2, 6]: 0 | ATG_PPARa_TRANS [3]: 0 | NCGC_RXRa_Agonist [4]: 0

C=CCOC(=O)C(C)(C)OC(=O)c1cc(-n2c(=O)cc(C(F)(F)F)n(C)c2=O)ccc1Cl [r47]
ATG_ERa_TRANS [2, 6]: 0 | ATG_PPARa_TRANS [3]: 0 | NCGC_RXRa_Agonist [4]: 0

CCC(C)Nc1c([N+](=O)[O-])cc(C(C)(C)C)cc1[N+](=O)[O-] (stereo not shown) [r48]
CLZD_CYP1A1_24 [1, 5]: 0 | ATG_ERa_TRANS [2, 6]: 4.796 | ATG_PPARa_TRANS [3]: 0 | NCGC_RXRa_Agonist [4]: 0

CCSC(=O)N(CC(C)C)CC(C)C [r49]
CLZD_CYP1A1_24 [1, 5]: 0 | ATG_ERa_TRANS [2, 6]: 0 | ATG_PPARa_TRANS [3]: 0 | NCGC_RXRa_Agonist [4]: 0

O=C1C2CC=CCC2C(=O)N1SC(Cl)(Cl)Cl (stereo not shown) [r51]
CLZD_CYP1A1_24 [1, 5]: 0 | ATG_ERa_TRANS [2, 6]: 0 | ATG_PPARa_TRANS [3]: 0 | NCGC_RXRa_Agonist [4]: 0

CNC(=O)Oc1cccc2ccccc12 [r52]
ATG_ERa_TRANS [2, 6]: 4.237 | ATG_PPARa_TRANS [3]: 0 | NCGC_RXRa_Agonist [4]: 0

CC1=C(C(=O)Nc2ccccc2)SCCO1 [r53]
CLZD_CYP1A1_24 [1, 5]: 4.822 | ATG_ERa_TRANS [2, 6]: 0 | ATG_PPARa_TRANS [3]: 0 | NCGC_RXRa_Agonist [4]: 0

CCOC(=O)C(Cl)Cc1cc(-n2nc(C)n(C(F)F)c2=O)c(F)cc1Cl (stereo not shown) [r54]
CLZD_CYP1A1_24 [1, 5]: 0 | ATG_ERa_TRANS [2, 6]: 0 | ATG_PPARa_TRANS [3]: 0 | NCGC_RXRa_Agonist [4]: 0

Nc1cnn(-c2ccccc2)c(=O)c1Cl [r56]
CLZD_CYP1A1_24 [1, 5]: 0 | ATG_ERa_TRANS [2, 6]: 0 | ATG_PPARa_TRANS [3]: 0 | NCGC_RXRa_Agonist [4]: 0

COc1cc(Cl)c(OC)cc1Cl [r57]
CLZD_CYP1A1_24 [1, 5]: 0 | ATG_ERa_TRANS [2, 6]: 0 | ATG_PPARa_TRANS [3]: 0 | NCGC_RXRa_Agonist [4]: 0

N#Cc1c(Cl)c(Cl)c(Cl)c(C#N)c1Cl [r58]
CLZD_CYP1A1_24 [1, 5]: 0 | ATG_ERa_TRANS [2, 6]: 0 | ATG_PPARa_TRANS [3]: 0 | NCGC_RXRa_Agonist [4]: 0

CC(C)OC(=O)Nc1cccc(Cl)c1 [r59]
CLZD_CYP1A1_24 [1, 5]: 0 | ATG_ERa_TRANS [2, 6]: 0 | ATG_PPARa_TRANS [3]: 0 | NCGC_RXRa_Agonist [4]: 0

COc1nc(C)nc(NC(=O)NS(=O)(=O)c2ccccc2Cl)n1 [r62]
CLZD_CYP1A1_24 [1, 5]: 0 | ATG_ERa_TRANS [2, 6]: 0 | ATG_PPARa_TRANS [3]: 0 | NCGC_RXRa_Agonist [4]: 0

COc1nc(C)nc(NC(=O)NS(=O)(=O)c2ccccc2Cl)n1 [r63]
CLZD_CYP1A1_24 [1, 5]: 0 | ATG_ERa_TRANS [2, 6]: 0 | ATG_PPARa_TRANS [3]: 0 | NCGC_RXRa_Agonist [4]: 0

Cc1ccccc1CO[C@@H]1C[C@@]2(C(C)C)CC[C@]1(C)O2 [r64]
CLZD_CYP1A1_24 [1, 5]: 0 | ATG_PPARa_TRANS [3]: 0 | NCGC_RXRa_Agonist [4]: 0

CCCN(CCC)c1c([N+](=O)[O-])cc(C(F)(F)F)c(N)c1[N+](=O)[O-] [r252]
CLZD_CYP1A1_24 [1]: 5.053 | ATG_ERa_TRANS ([2]; HepG2): 4.824

CSc1nc(NC(C)C)nc(NC(C)C)n1 [r256]
CLZD_CYP1A1_24 [1]: 5.071

CCCC1COC(Cn2cncn2)(c2ccc(Cl)cc2Cl)O1 (stereo not shown) [r262]
CLZD_CYP1A1_24 [1]: 4.952

CC(C)=CC1C(C(=O)OCc2coc(Cc3ccccc3)c2)C1(C)C (stereo not shown) [r280]
ATG_ERa_TRANS ([2]; HepG2 reporter): 4.553

CCc1ccc(C(=O)NN(C(=O)c2cc(C)cc(C)c2)C(C)(C)C)cc1 [r290]
CLZD_CYP1A1_24 [1]: 5.222

CCc1nn(C)c(C(=O)NCc2ccc(C(C)(C)C)cc2)c1Cl [r291]
CLZD_CYP1A1_24 [1]: 4.87

CCN(CC)C(=O)C(C)Oc1cccc2ccccc12 (stereo not shown) [row 219]
CLZD_CYP1A1_24 [1]: 4.557 | ATG_ERa_TRANS ([2]; HepG2): 4.337

CC(C)Oc1cc(-n2nc(C(C)(C)C)oc2=O)c(Cl)cc1Cl [row 225]
CLZD_CYP1A1_24 [1]: 4.998

— publication PMC3038857, “Using Nuclear Receptor Activity to Stratify Hepatocarcinogens” (PLoS ONE, 2011)
